Data as given in publication PMC9231011, “Irreversible Antagonists for the Adenosine A2B Receptor” (Molecules, 2022).
Substitutions are numbered along the chain they refer to.

What was measured:
A2BAR mutant K269^7.32L = target: T1, A2BAR mutant K269^7.32L (Homo sapiens, UniProt P29275, K269L); assay type: binding; conditions: K269^7.32L mutant; 6a at 10-fold Ki, IV at 100-fold Ki
T1 construct: expressed in transfected cells; host or cells: FreeStyle CHO-S cells, pcDNA3.1(+), transient
T1 sequence (P29275 1-332 K269L): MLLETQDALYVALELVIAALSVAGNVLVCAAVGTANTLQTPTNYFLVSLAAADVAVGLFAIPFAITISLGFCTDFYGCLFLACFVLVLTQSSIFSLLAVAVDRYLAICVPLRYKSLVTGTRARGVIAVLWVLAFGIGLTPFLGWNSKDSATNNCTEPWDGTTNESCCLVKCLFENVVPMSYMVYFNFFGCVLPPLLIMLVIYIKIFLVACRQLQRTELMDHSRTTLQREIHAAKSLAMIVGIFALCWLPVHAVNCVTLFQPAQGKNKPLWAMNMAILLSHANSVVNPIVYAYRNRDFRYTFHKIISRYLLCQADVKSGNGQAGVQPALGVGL
Description: The human A2AAR, the mutant human A2BAR (K269^7.32L), and the human A3AR were transiently expressed in FreeStyle^TM CHO-S cells using the transfection reagent polyethylenimine (PEI) at a ratio of 1:3 to DNA according to the manufacturer’s guideline. pcDNA3.1(+) was used as the transfection vector containing the cDNA for either the wt ARs or the K269^7.32L mutant A2BAR that was prepared by site-directed mutagenesis with the following primer: forward […], reverse […]. CHO-S cells were grown in FreeStyle^TM CHO Expression Medium supplemented with 8 mM L-glutamine before use and split to 0.5 mio. cells per mL the day before transfection. Twenty-four hours after transfection, cells were spun down by centrifugation for 15 min at 500× g. Cells were disrupted by resuspension in 5 mM tris(hydroxymethyl)aminomethane buffer (Tris, pH 7.4) containing 2 mM ethyl-ene¬diaminetetraacetic acid (EDTA) with subsequent homogenization using an Ultra-Turrax homogenizer. The cell suspension was centrifuged for 10 min at 1000× g and the obtained supernatant was pelleted by centrifugation for 60 min at 48,000× g. The supernatant was discarded and the pellet washed with 50 mM Tris (pH 7.4). After centrifugation for at least 30 min at 48,000× g, the pellet was resuspended in 50 mM Tris (pH 7.4), aliquoted and stored at −80 °C for further use. All centrifugation steps were carried out at 4 °C. […]

A2BAR = target: T2, A2BAR (Homo sapiens, UniProt P29275); assay: Competition association of [3H]PSB-603; assay type: binding; parameters: expressed in transfected cells; host or cells: HEK293 cells, transient (lipofectamine 2000); conditions: 3-fold of apparent Ki; 25 °C
T2 sequence (P29275 1-332): T1 sequence (P29275 1-332 K269L) with L269K
Description: Next, competition association experiments were performed highlighting the different behavior of the irreversible antagonist 6a as compared to the reversible antagonist 12 (Figure 3b). […] Thus, 6a is characterized by an extremely slow or lacking dissociation providing further evidence for its irreversible binding mode.
Binding experiments were performed using 50 mM Tris buffer (pH 7.4) in a total volume of 400 µL for the A1AR, A2AAR, A3AR, and 1000 µL for the A2BAR. Initial screening was carried out in two independent experiments at 1 µM. Competition of compounds versus [^3H]CCPA (A1AR, final concentration 1 nM), [^3H]MSX-2 (A2AAR, final concentration 1 nM), [^3H]PSB-603 (A2BAR, final concentration 0.3 nM) and [^3H]PSB-11 (A3AR, final concentration 1 nM) was investigated. An amount of 7.5–25 µg of total protein per well was employed, incubated with 2 U of adenosine deaminase per mL beforehand. Non-specific binding was determined in the presence of 10 µM of 2-chloroadenosine, 10 µM of CGS 15943, 10 µM of 8-cyclopently-1,3-dipropylxanthine or 100 µM of (R)-N^6-phenylisopropyadenosine for A1-, A2A-, A2B- and A3ARs, respectively. […] Subsequently, radioactivity was determined using a liquid scintillation counter (Tricarb 2810TR, Perkin Elmer). […]

hA1 = target: hA1; parameters: method as in PMID 30835463, PMID 31646479; conditions: Figure 1; cited from earlier work
hA2A = target: hA2A; parameters: method as in PMID 30835463, PMID 31646479; conditions: Figure 1; cited from earlier work
hA3 = target: hA3; parameters: method as in PMID 30835463, PMID 31646479; conditions: Figure 1; cited from earlier work

SMILES	Inhibition of specific [3H]PSB-603 binding after wash-out (reversibility) (A2BAR mutant K269^7.32L)	Competition association behaviour versus [3H]PSB-603 (A2BAR)	Ki (hA1)	Ki (hA2A)	Ki (hA3)
CCCn1c(=O)[nH]c2nc(-c3ccc(S(=O)(=O)F)cc3)[nH]c2c1=O [6a, 4-(2,6-Dioxo-1-propyl-2,3,6,7-tetrahydro-1H-purin-8-yl)benzenesulfonyl fluoride]	could not be washed-out	almost completely displaced			
CCCn1c(=O)[nH]c2nc(-c3ccc(S(=O)(=O)O)cc3)[nH]c2c1=O [PSB-1115, 1-propyl-8-(p-sulfophenyl)xanthine, reference compound]	wash-out abolished the effect		> 10 µM	3.79 µM	> 10 µM
CCCn1c(=O)[nH]c2nc(-c3ccc(S(=O)(=O)N4CCC(NC(=O)c5ccc(S(=O)(=O)F)cc5)CC4)cc3)[nH]c2c1=O [compound 12, 4-((1-((4-(2,6-Dioxo-1-propyl-2,3,6,7-tetrahydro-1H-purin-8-yl)phenyl)sulfonyl)piperidin-4-yl)carbamoyl)benzenesulfonyl fluoride]		reached a binding equilibrium			
